Reference: ChEMBL document CHEMBL5725285, “Pyrrole six-membered heteroaryl ring derivative, preparation method thereof, and medicinal uses thereof” (2016)

Assays:
[1] = target: T1, Tyrosine-protein kinase JAK3 (Homo sapiens, UniProt P52333); test: In Vitro Kinase Assay: In vitro kinase assays described below can be used to determine the activity of a test compound for inhibiting the activity of JAK3 kinase. The test compounds were dissolved in dimethyl sulfoxide and diluted with water to a serial concentration gradient as required by the experiment. JAK3 substrates (Cell Signaling Technology, Catalog Number: 1305s) and ATP (2 mM) solution …
T1 sequence (P52333 whole entry): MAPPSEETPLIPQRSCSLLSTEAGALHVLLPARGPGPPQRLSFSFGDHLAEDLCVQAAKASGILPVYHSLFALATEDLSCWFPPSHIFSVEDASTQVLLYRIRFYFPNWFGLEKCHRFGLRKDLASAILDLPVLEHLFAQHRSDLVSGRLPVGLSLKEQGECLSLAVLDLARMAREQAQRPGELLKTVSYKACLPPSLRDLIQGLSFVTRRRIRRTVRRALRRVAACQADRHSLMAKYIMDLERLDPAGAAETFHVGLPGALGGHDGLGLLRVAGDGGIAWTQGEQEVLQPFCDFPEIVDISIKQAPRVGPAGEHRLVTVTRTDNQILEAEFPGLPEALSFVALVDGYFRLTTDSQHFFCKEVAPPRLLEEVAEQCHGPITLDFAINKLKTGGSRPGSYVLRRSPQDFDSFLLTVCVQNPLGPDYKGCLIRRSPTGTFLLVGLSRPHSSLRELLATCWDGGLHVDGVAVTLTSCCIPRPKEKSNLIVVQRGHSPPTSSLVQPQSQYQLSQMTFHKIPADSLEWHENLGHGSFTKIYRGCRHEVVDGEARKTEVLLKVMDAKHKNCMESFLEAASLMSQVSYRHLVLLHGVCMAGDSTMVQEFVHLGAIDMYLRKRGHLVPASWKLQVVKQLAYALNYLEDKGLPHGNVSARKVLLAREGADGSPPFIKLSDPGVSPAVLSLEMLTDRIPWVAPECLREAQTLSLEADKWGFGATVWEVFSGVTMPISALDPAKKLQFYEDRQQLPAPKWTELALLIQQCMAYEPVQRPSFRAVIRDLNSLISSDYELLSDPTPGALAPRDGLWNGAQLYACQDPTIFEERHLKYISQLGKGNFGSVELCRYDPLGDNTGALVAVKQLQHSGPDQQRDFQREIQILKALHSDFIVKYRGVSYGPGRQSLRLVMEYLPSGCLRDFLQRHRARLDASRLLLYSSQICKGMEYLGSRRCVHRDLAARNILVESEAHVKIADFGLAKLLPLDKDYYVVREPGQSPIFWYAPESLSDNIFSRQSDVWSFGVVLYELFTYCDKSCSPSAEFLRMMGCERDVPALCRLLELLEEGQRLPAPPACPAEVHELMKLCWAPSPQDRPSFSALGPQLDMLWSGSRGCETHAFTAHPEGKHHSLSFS

[2] = target: T2, Tyrosine-protein kinase JAK1 (Homo sapiens, UniProt P23458); test: JAK1 Kinase Assay: TBDIn vitro kinase assays described below can be used to determine the activity of a test compound for inhibiting the activity of JAK1 kinase. The test compounds were dissolved in dimethyl sulfoxide and diluted with water to a serial concentration gradient as required in the experiment. JAK1 substrates (Cell Signaling Technology, Catalog Number: 1305s) and ATP (2 mM) solution …
T2 sequence (P23458 whole entry): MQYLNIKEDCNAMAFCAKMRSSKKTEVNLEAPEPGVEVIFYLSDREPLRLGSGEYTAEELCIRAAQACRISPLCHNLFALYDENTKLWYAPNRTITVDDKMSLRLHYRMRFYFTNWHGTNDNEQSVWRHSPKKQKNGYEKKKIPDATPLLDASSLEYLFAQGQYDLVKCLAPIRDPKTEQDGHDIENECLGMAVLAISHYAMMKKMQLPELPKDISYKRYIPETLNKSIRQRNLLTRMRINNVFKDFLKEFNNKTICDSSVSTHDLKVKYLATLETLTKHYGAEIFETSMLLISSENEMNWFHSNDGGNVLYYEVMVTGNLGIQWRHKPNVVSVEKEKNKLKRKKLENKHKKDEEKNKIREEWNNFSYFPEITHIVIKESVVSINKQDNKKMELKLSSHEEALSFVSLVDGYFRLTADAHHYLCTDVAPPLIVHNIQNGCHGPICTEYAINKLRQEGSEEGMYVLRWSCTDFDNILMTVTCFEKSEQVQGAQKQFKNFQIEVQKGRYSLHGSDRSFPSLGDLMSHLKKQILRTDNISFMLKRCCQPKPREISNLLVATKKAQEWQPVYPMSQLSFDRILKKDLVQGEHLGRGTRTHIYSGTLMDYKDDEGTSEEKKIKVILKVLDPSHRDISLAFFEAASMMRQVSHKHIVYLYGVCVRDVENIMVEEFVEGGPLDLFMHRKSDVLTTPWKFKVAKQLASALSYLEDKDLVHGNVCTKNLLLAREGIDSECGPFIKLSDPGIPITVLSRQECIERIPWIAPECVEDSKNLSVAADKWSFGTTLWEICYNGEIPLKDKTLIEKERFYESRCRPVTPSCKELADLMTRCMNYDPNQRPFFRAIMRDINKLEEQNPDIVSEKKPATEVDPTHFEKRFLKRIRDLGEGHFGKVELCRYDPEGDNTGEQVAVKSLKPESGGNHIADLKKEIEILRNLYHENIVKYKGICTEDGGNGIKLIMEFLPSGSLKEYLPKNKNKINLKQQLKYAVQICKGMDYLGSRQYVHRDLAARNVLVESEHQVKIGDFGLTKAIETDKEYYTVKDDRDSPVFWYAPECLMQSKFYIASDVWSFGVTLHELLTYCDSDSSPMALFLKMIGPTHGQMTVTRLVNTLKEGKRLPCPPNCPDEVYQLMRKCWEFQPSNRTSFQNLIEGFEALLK

[3] = target: T2, Tyrosine-protein kinase JAK1; test: IC50 values of test compounds was calculated from the data of the test compounds in inhibiting the activity of JAK1 kinase at different concentrations.

Row | SMILES | IC50 [1] [nM] | IC50 [2] [nM] | IC50 [3] [nM]
1 | CN(c1ncnc2[nH]ccc12)[C@@H]1C[C@@H]2CCN(C(=O)Nc3nncs3)C[C@@H]2C1 | 148 | 40 | 
2 | CN(c1ncnc2[nH]ccc12)[C@H]1C[C@@H]2CN(C(=O)[C@H](O)C(F)(F)F)C[C@@H]2C1 |  |  | 45
